According to PubChem BioAssay (NCI):
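GI50 = concentration required for 50% inhibition of growth. TGI marks complete inhibition of growth.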

Assays:
Test in all cases: growth of human tumour cells (NCI), 384-well format
[1] = test system: NCI-H226 lung
[2] = test system: HOP-62 NSCLC
[3] = test system: OVCAR-8 ovarian
[4] = test system: NCI-H460 NSCLC
[5] = test system: A549 NSCLC
[6] = test system: NCI-H522 lung
[7] = test system: KM12 colon
[8] = test system: BT-549 breast
[9] = test system: PC-3 prostate
[10] = test system: A498 renal
[11] = test system: MDA-MB-231 breast
[12] = test system: MOLT-4 leukemia
[13] = test system: HS 578T breast
[14] = test system: HT29 colon
[15] = test system: ACHN renal
[16] = test system: SN12C renal
[17] = test system: HL-60(TB) leukemia
[18] = test system: SF-295 CNS
[19] = test system: MDA-MB-468 breast
[20] = test system: NCI-H23 lung
[21] = test system: MDA-MB-435 melanoma
[22] = test system: HCC-2998 colon
[23] = test system: EKVX NSCLC
[24] = test system: HOP-92 NSCLC
[25] = test system: RXF 393 renal
[26] = test system: SK-OV-3 ovarian
[27] = test system: OVCAR-5 ovarian
[28] = test system: DU-145 prostate
[29] = test system: CAKI-1 renal
[30] = test system: RPMI-8226 leukemia
[31] = test system: OVCAR-4 ovarian
[32] = test system: NCI/ADR-RES ovarian
[33] = test system: IGROV1 ovarian
[34] = test system: 786-0 renal
[35] = test system: NCI-H322M lung
[36] = test system: COLO 205 colon
[37] = test system: HCT-15 colon
[38] = test system: MCF7 breast
[39] = test system: M14 melanoma
[40] = test system: HCT-116 colon
[41] = test system: MALME-3M melanoma
[42] = test system: OVCAR-3 ovarian
[43] = test system: LOX IMVI melanoma
[44] = test system: SK-MEL-5 melanoma

Cc1cn(-c2cc(NC(=O)c3ccc(C)c(Nc4nccc(-c5cccnc5)n4)c3)cc(C(F)(F)F)c2)cn1
GI50 [1]: 1700 nM | TGI [1]: 3680 nM | GI50 [2]: 2210 nM | TGI [2]: 5730 nM | GI50 [3]: 1590 nM | TGI [3]: 3320 nM | GI50 [4]: 2670 nM | TGI [4]: 9420 nM | GI50 [5]: 1720 nM | TGI [5]: 3160 nM | GI50 [6]: 1820 nM | TGI [6]: 4480 nM | GI50 [7]: 2500 nM | TGI [7]: 6870 nM | GI50 [8]: 1990 nM | TGI [8]: 3430 nM | GI50 [9]: 1710 nM | TGI [9]: 3130 nM | GI50 [10]: 1980 nM | TGI [10]: 3940 nM | GI50 [11]: 1300 nM | TGI [11]: 3650 nM | GI50 [12]: 1890 nM | TGI [12]: > 100000 nM | GI50 [13]: 1550 nM | TGI [13]: 2900 nM | GI50 [14]: 1660 nM | TGI [14]: 3780 nM | GI50 [15]: 1640 nM | TGI [15]: 3470 nM | GI50 [16]: 3610 nM | TGI [16]: > 100000 nM | GI50 [17]: 1460 nM | TGI [17]: 7920 nM | GI50 [18]: 1740 nM | TGI [18]: 3390 nM | GI50 [19]: 1770 nM | TGI [19]: 3310 nM | GI50 [20]: 2240 nM | TGI [20]: 7480 nM | GI50 [21]: 1720 nM | TGI [21]: 3490 nM | GI50 [22]: 2240 nM | TGI [22]: 5360 nM | GI50 [23]: 1880 nM | TGI [23]: 3780 nM | GI50 [24]: 1660 nM | TGI [24]: 3600 nM | GI50 [25]: 1470 nM | TGI [25]: 2840 nM | GI50 [26]: 1830 nM | TGI [26]: 3300 nM | GI50 [27]: 1910 nM | TGI [27]: 5090 nM | GI50 [28]: 2800 nM | TGI [28]: 7600 nM | GI50 [29]: 3040 nM | TGI [29]: 10800 nM | GI50 [30]: 1460 nM | TGI [30]: 5450 nM | GI50 [31]: 3160 nM | TGI [31]: 7250 nM | GI50 [32]: 1580 nM | TGI [32]: 3740 nM | GI50 [33]: 1870 nM | TGI [33]: 3610 nM | GI50 [34]: 1640 nM | TGI [34]: 3030 nM | GI50 [35]: 2290 nM | TGI [35]: 4630 nM | GI50 [36]: 1280 nM | TGI [36]: 2980 nM | GI50 [37]: 3600 nM | TGI [37]: 14200 nM | GI50 [38]: 1880 nM | TGI [38]: 3670 nM | GI50 [39]: 1190 nM | TGI [39]: 2530 nM | GI50 [40]: 1650 nM | TGI [40]: 3750 nM | GI50 [41]: 447 nM | TGI [41]: 1620 nM | GI50 [42]: 1730 nM | TGI [42]: 3360 nM | GI50 [43]: 2200 nM | TGI [43]: 9930 nM | GI50 [44]: 1280 nM | TGI [44]: 2600 nM
